From paper PMC7335359, “Design and Synthesis of Dihydroxamic Acids as HDAC6/8/10 Inhibitors” (Chemmedchem, 2020)

How the values were obtained:
Type in all cases: cell-based
[1] = test system: lysosomal staining with LysoTracker DND‐99 (HDAC10 knockdown phenotype); experiment: LysoTracker assay in SK-N-BE(2)C cells; conditions: 10 μM inhibitor, normalized to DMSO
Procedure: LysoTracker assay: SK‐N‐BE(2)‐C cells were seeded into 6‐well dishes at a density of 1.5×10^5 cells per well. Cells were treated with inhibitor over night at concentrations indicated in the figure and stained the following day for 1 h with 50 nM LysoTracker® Red DND‐99 in medium under standard cell culture conditions. Cells were washed with ice‐cold RPMI without phenol‐red and trypsinized for 3 min at 37 °C. Detached cells were centrifuged for 3 min at 8600 g and re‐suspended in ice‐cold RPMI without phenol red. Mean LysoTracker fluorescence was quantified on a BD FACSCanto II platform using the PE filter setting. Data were normalized to mean LysoTracker fluorescence of solvent (DMSO) treated cells.

HDAC10 = biological target: T1, HDAC10 (Homo sapiens, UniProt Q969S8); experiment: cellular BRET HDAC10 target engagement assay (stably transfected HeLa cells); design: host or cells: HeLa (stably transfected mono-clones); conditions: for IC50: read-out: HDAC10 BRET pIC50 (converted)
T1 sequence (Q969S8 1-669): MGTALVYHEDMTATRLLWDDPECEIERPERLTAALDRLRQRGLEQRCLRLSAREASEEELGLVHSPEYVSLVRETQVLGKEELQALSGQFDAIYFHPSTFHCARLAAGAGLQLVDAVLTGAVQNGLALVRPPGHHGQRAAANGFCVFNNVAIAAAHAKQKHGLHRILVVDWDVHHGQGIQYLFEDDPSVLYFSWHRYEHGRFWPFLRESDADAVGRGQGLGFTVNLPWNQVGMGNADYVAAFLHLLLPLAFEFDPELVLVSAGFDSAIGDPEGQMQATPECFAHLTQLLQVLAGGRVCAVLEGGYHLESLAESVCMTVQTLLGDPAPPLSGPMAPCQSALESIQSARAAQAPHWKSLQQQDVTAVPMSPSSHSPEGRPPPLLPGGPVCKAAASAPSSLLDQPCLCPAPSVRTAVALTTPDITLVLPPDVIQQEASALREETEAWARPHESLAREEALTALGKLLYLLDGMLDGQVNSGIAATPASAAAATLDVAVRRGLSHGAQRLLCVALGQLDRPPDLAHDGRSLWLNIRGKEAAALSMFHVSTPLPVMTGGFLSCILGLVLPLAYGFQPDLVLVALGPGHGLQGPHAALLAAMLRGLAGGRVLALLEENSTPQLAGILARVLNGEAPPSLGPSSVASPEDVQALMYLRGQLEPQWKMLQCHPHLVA
Procedure: Production of mono‐clones stably expressing HDAC‐nanoBRET proteins: Plasmids expressing a fusion of HDAC10 with nanoluciferase were obtained from Promega (N2170). HeLa cells (0.75×10^6) were seeded in a 6 cm dish and after 24 h were transfected with a mix of 10 μg plasmid and 3 μL Fugene in 200 μL OptiMEM. In detail, cells were washed with pre‐warmed OptiMEM and subsequently overlaid with 2.3 mL of OptiMEM. After addition of 200 μL transfection mix, cells were incubated for 24 h at 37 °C. Cells were than trypsinized and 0.2×10^5 cells were seeded into both 10 cm and 15 cm dishes. Transformants were selected with 1 mg/mL G‐418 for 6 days with a media change after 3 days. Clones which formed colonies were picked by rinsing plates with 3 mL Trypsin/EDTA (Sigma T3924) followed by a 2 min incubation with 300 μL Trypsin/EDTA at 37 °C. Colonies were then loosened and aspirated with a 10 μL filter tip and transferred to 24‐well plates containing selection medium.
Culture of stable BRET cell lines: Stably transfected HeLa cells were cultivated under sterile conditions in polystyrene cell culture flasks (658170, Greiner) at 37 °C and 5 % CO2 in a humidified atmosphere. DMEM growth medium (D6049, Sigma) was supplemented with 10 % FCS (FBS‐12A, Capricorn Scientific), 1 % penicillin‐streptomycin (P4333, Sigma) and 1 mg/mL Geneticin (2039.3, Roth). At confluency, cells were passaged by removing old medium, DPBS (14190‐094, gibco) wash, trypsination (T4049, Sigma) and seeding in fresh growth medium.
BRET assay: The intracellular target engagement assay on HDAC10 was performed as described by the kit manufacturer in a 96‐well plate (3600, Corning) format with 1.9×10^4 cells per well and a tracer concentration of 0.3 μM. […] Drug dosing was performed from 10 mM and 1 mM DMSO stock solutions with a D300e Digital Dispenser (Tecan), DMSO concentrations were normalized to 0.5 % for all wells. Assay plates were incubated at 37 °C for 2 h followed by measurement of 450 nm and 650 nm luminescence (80 nm bandwidth) at room temperature with a CLARIOstar (BMG Labtech) plate reader 2 min after NanoLuc substrate addition.

[2] = test system: acetylation of the HDAC8 substrate SMC3; experiment: Western blot of SMC3 acetylation in SK-N-BE(2)C cells; conditions: relative to solvent control
Procedure: Western blot analysis of SMC3, tubulin and histone H3 acetylation: For the analysis of protein acetylation, 1.5–2×10^6 SK‐N‐BE(2)‐C cells were seeded per 10 cm dish and allowed to adhere overnight. Cells were treated for 18 h (Figure 4B) or 6 h (Figure 4E) with inhibitors at concentrations indicated in the respective figure. […] Cell debris was removed by centrifugation (15 000 g for 10 min at 12 °C).

[3] = test system: acetylation of histone H3 (HDAC1 substrate); experiment: Western blot of histone H3 acetylation in SK-N-BE(2)C cells
Procedure: (§1) Western blot analysis of SMC3, tubulin and histone H3 acetylation: For the analysis of protein acetylation, 1.5–2×10^6 SK‐N‐BE(2)‐C cells were seeded per 10 cm dish and allowed to adhere overnight. Cells were treated for 18 h (Figure 4B) or 6 h (Figure 4E) with inhibitors at concentrations indicated in the respective figure. Cells were lysed in SDS lysis buffer (2 % w/v SDS, 10 % v/v glycerol, 1 mM DTT, 62.5 mM TRIS, pH 6.8) and proteins were denatured at 95 °C for 10 min. Cell debris was removed by centrifugation (15 000 g for 10 min at 12 °C). Western blot analysis was performed as described before.7a The following antibodies were used: anti‐acetylated tubulin (6‐11B‐1; Sigma) anti‐acetylated SMC3 (kindly provided by Katsuhiko Shirahige, Institute for Molecular and Cellular Biosciences, University of Tokyo, Japan),35 anti acetylated histone H3 (#06‐911, Millipore), anti histone H3 (#9715, Cell Signaling Technology) and anti β‐actin (#5441, Sigma‐Aldrich).

[4] = test system: acetylation of tubulin (HDAC6 substrate); experiment: Western blot of tubulin acetylation in SK-N-BE(2)C cells
Procedure: as §1

[5] = cellular target engagement, one experiment in triplicate

HDAC10 BRET pIC50 (HDAC10; [5])	IC50 (HDAC10; [5])	loss of potency between the FRET and BRET HDAC10 assays (HDAC10; BRET weaker than FRET)	Compound	lysosomal staining with LysoTracker DND-99 (HDAC10 knockdown phenotype) [1]	acetylation of SMC3 (HDAC8 substrate), Western blot [2]	acetylation of histone H3 (HDAC1 substrate), Western blot [3]	acetylation of tubulin (HDAC6 substrate), Western blot [4]
7.80	–	–	CN(C)Cc1nn(Cc2ccc(C(=O)NO)cc2)c2ccccc12 [Compound 1g]	effective	–	–	–
–	158 nM	–	CN(C)Cc1nn(Cc2ccc(C(=O)NO)cc2)c2cc(C(=O)NO)ccc12 [Compound 3g]	failed to produce an HDAC10 knockdown phenotype	no effect	–	–
–	15.1 nM	~5 fold	O=C(NO)c1ccc(Cc2c[nH]c3ccc(C(=O)NO)cc23)cc1 [Compound 3d]	induces lysosomal acidification similar to Tubastatin A	increases acetylation	significantly weaker effects	increases acetylation
–	–	–	CN(C)CCn1cc(Cc2ccc(C(=O)NO)cc2)c2cc(C(=O)NO)ccc21 [Compound 3e]	failed to produce an HDAC10 knockdown phenotype	–	–	–
